Tests used:
[1] = Oral absorption (amount of compound in rat serum by HPLC, area under curve); type: in vivo, Sprague-Dawley female rats; conditions: single dosage 160 mg/kg in water, 0.5 to 24 hours, average of 3 rats
Experimental: Twelve-week-old Sprague-Dawley female rats (3 rats per group) were bred for acclimation for a week. Then, the compounds of the present invention and a reference substrate were dissolved in water, and orally administered to the rats in a single dosage (160 mg/kg). After 0.5 hour, 1 hour, 2 hours, 4 hours, 6 hours, 8 hours, and 24 hours, the amounts of each compound (ng) per 1 ml of serum were measured using HPLC. Curves were obtained from the relation between an elapsed time after administration and the amount of the compound in serum at each elapsed time, respectively, and an average of the areas under the curves was calculated.
As a reference substance, Compound No. 184 disclosed in Japanese Unexamined Patent Publication (Kokai) No. 8-48651 was used. Compound No. 184 corresponds to the compound of the formula (I) wherein R^1 =nBu, A=N, Z=C, R^2 =CO, R^3 =NC4 H8 O, R^4 =H, R^5 =Me, and R^6 =Me.

ICR female mice = assay: Acute toxicity, single oral dose in mice; conditions: mouse, in vivo
Experimental: The aromatic compounds of the formula (I) according to the present invention were orally administered to mice at the dose of 500 mg/kg, but no fatalities were observed over a period of one week.
Five-week-old ICR female mice (5 mice per group) were bred for acclimation for a week. Then, the compounds of the present invention were dissolved in water, and orally administered to the mice in a single dosage (500 mg/kg).

[2] = biological target: T1, angiotensin II receptor subtype 1 (AT1) (Oryctolagus cuniculus, UniProt P34976); assay: Binding to receptors: angiotensin II receptor subtype 1 (AT1); design: species or system rabbits (adrenal glands); conditions: rabbit adrenal glands, tracer 3H-angiotensin II
T1 construct: receptor : from adrenal glands in rabbits; from tissue; host or cells: rabbit adrenal glands
T1 sequence (P34976 1-359): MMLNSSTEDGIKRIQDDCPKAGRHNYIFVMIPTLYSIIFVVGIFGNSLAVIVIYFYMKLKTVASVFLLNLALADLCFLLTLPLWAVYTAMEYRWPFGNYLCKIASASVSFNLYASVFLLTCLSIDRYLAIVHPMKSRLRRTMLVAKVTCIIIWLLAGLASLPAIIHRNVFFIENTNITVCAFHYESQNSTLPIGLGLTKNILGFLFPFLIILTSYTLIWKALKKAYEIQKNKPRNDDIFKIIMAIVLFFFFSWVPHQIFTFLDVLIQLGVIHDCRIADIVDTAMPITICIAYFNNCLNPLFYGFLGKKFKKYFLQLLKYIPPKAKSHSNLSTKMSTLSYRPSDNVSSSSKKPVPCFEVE
Experimental: In this Example, the affinity to the angiotensin II receptor subtype 1 or subtype 2 was evaluated by a binding assay in accordance with the method described in Biochem. Pharmacol., 33, 4057-4062 (1984).
Specifically, the measurement of the total binding in the presence of each drug was performed as follows:
A mixture (final volume=0.25 ml) of a drug in a given concentration (the drug was dissolved in DMSO, and diluted to a double volume with a buffer attached to a drug discovery system to prepare a sample for the assay; 0.025 ml), a tracer (0.025 ml), and receptors (0.2 ml) was incubated [in the case of the angiotensin II receptor subtype 1 (AT1), at room temperature for 3 hours, and in the case of the subtype 2 (AT2), at 37° C. for 1 hour]. Then, the reaction mixture was filtered with suction (GF/C filter was used in AT1, and GF/B filter was used in AT2). The filter papers after filtration with suction (the tracer bound to the receptors) were counted by a γ-well counter (ARC-500, Aloka). The non-specific bindings were measured by repeating the above method, except that a large excess amount of a displacer was added. The specific binding of the drug in the given concentration was calculated by subtracting the non-specific binding from the total binding, respectively.
receptor : from adrenal glands in rabbits
tracer : ^3 Hangiotensin II

Compound | AUC at 24 h [1] | Number of deaths/number of survivals (ICR female mice) | inhibition at 100 µM [2]
CCCCC(=O)N(Cc1ccc(C(=O)OCCN(C)C)cc1)c1cc(C(=O)N2CCOCC2)ccc1N(C)C [Compound No. 1, 4-dimethylamino-3-N-[[[4-(2'-dimethylaminoethoxycarbonyl)phenyl]methyl]valeramido]benzoic acid morpholide] | 13900 ng·h/mL | 0/5 | 10%
CCCCC(=O)N(Cc1ccc(C(=O)OCCCN(C)C)cc1)c1cc(C(=O)N2CCOCC2)ccc1N(C)C [Compound No. 2, 4-dimethylamino-3-N-[[[4-(3'-dimethylaminopropoxycarbonyl)phenyl]methyl]valeramido]benzoic acid morpholide] | 10700 ng·h/mL | 0/5 | 14%
CCCCC(=O)N(Cc1ccc(C(=O)OCCN(CC)CC)cc1)c1cc(C(=O)N2CCOCC2)ccc1C(C)C [Compound No. 8, 3-N-[[[4-(2'-diethylaminoethoxycarbonyl)phenyl]methyl]valeramido]-4-i-propylbenzoic acid morpholide] | 24600 ng·h/mL | 0/5 | 11%
CCCCCCC(=O)N(Cc1ccc(C(=O)O)cc1)c1cc(C(=O)N2CCN(CCC)CC2)ccc1C(C)C [Compound No. 20, 3-N-[[(4-carboxyphenyl)methyl]n-heptanamido]-4-i-propylbenzoic acid 4'-n-propylpiperazide] | 183000 ng·h/mL | 0/5 | 0%
CCCCCCC(=O)N(Cc1ccc(C(=O)O)cc1)c1cc(C(=O)N2CCN(C)CC2)ccc1N(C)C [Compound No. 13, 3-[[(4-carboxyohenyl)methyl]n-heptanamido]-4-dimethylaminobenzoic acid 4'-methylpiperazide] | 1460 ng·h/mL | 0/5 | 0%
CCCCCCC(=O)N(Cc1ccc(C(=O)O)cc1)c1cc(C(=O)N2CCN(CCC)CC2)ccc1N(C)C [Compound No. 12, 4-dimethylamino-3-N-[[(4-carboxyphenyl)methyl]n-heptanamido]benzoic acid 4'-n-propyl piperazide] | 32200 ng·h/mL | 0/5 | 0%
CCCCCCC(=O)N(Cc1ccc(C(=O)O)cc1)c1cc(C(=O)N2CCN(C)CC2)ccc1C(C)C [Compound No. 18, 3-N-[[(4-carboxyphenyl)methyl]n-heptanamido]-4-i-propylbenzoic acid 4'-methylpiperazide] | 12800 ng·h/mL | 0/5 | 11%
CCCCC(=O)N(Cc1ccc(C(=O)OCCCN)cc1)c1cc(C(=O)N2CCOCC2)ccc1N(C)C [Compound No. 3, 3-N-[[[4-(3'-aminopropoxycarbonyl)phenyl]methyl]valeramido]-4-dimethylaminobenzoic acid morpholide] | 9530 ng·h/mL | 0/5 | 0%
CCCCC(=O)N(Cc1ccc(C(=O)OCCN(C)C)cc1)c1cc(C(=O)N2CCOCC2)ccc1C(C)C [Compound No. 6, 3-N-[[[4-(2'-dimethylaminoethoxycarbonyl)phenyl]methyl]valeramido]-4-i-propylbenzoic acid morpholide] | 34700 ng·h/mL | 0/5 | 11%
CCCCC(=O)N(Cc1ccc(C(=O)O)cc1)c1cc(C(=O)N2CCN(CCC)CC2)ccc1C(C)C [Compound No. 19, 3-[[(4-carboxyphenyl)methyl]valeramido]-4-i-propylbenzoic acid 4'-n-propylpiperazide] | 172000 ng·h/mL | 0/5 | 11%
CCCCC(=O)N(Cc1ccc(C(=O)OCCN2CCOCC2)cc1)c1cc(C(=O)N2CCOCC2)ccc1C(C)C [Compound No. 9, 3-N-[[[4-(2'-morpholinoethoxycarbonyl)phenyl]methyl]valeramido]-i-propylbenzoic acid morpholide] | 50300 ng·h/mL | 0/5 | 13%
CCCCC(=O)N(Cc1ccc(C(=O)O)cc1)c1cc(C(=O)N2CCN(C)CC2)ccc1C(C)C [Compound No. 15, 3-[[(4-carboxyphenyl)methyl]valeramido]-4-i-propylbenzoic acid 4'-methylpiperazide] | 5670 ng·h/mL | 0/5 | 0%
CCCCC(=O)N(Cc1ccc(C(=O)OCCCN(C)C)cc1)c1cc(C(=O)N2CCOCC2)ccc1C(C)C [Compound No. 7, 3-N-[[[4-(3'-dimethylamino-1'-propoxycarbonyl)phenyl]methyl]valeramido]-4-i-propylbenzoic acid morpholide] | 14000 ng·h/mL | 0/5 | 14%
